The supplement of paper PMC10307832

Legend:
Test in all cases: relative viability (nuclei count vs DMSO), 5 days (fraction); higher = more cells survive
[1] = compound: CS(=O)(=O)c1ccc(C(=O)Nc2ccc(Cl)c(-c3ccccn3)c2)c(Cl)c1 [Vismodegib] + Cc1cc(Nc2cc(N3CCN(C)CC3)nc(Sc3ccc(NC(=O)C4CC4)cc3)n2)n[nH]1 [Tozasertib] (partner 0.1 µM)
Method in brief: (§1)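 Lung cancer cell lines were pin-tool dosed in 1536-well plates on the day after seeding, with either a lone drug or a fixed anchor-drug dose plus five library-drug doses (not always all listed) in √10 steps. Nuclei were counted on 4× images after 5 days. Relative viability is the ratio of treated-well to vehicle-well nuclei counts, with each value a median of duplicate plates.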

[2] = compound: CS(=O)(=O)c1ccc(-c2cnc(N)c(C(=O)Nc3ccccc3)n2)cc1 [VE-821] + COc1cccc2cc(-c3nc([C@H]4CC[C@H](C(=O)O)CC4)n4ncnc(N)c34)[nH]c12 [OSI-027] (partner 0.5 µM)
Method in brief: as §1

[3] = compound: N#CC[C@H](C1CCCC1)n1cc(-c2ncnc3[nH]ccc23)cn1 [Ruxolitinib] + C[C@@H](Oc1cc(-c2cnn(C3CCNCC3)c2)cnc1N)c1c(Cl)ccc(F)c1Cl [Crizotinib] (partner 1 µM)
Method in brief: as §1

[4] = compound: N#CC[C@H](C1CCCC1)n1cc(-c2ncnc3[nH]ccc23)cn1 [Ruxolitinib] + O=C(CCCCCCC(=O)Nc1ccccc1)NO [Vorinostat] (partner 1 µM)
Method in brief: as §1

Cell Line | relative viability ([1]; first compound 0.08 µM) | relative viability ([1]; first compound 0.253 µM) | relative viability ([1]; first compound 0.8 µM) | relative viability ([1]; first compound 2.53 µM) | relative viability ([1]; first compound 8 µM) | relative viability ([2]; first compound 0.08 µM) | relative viability ([2]; first compound 0.253 µM) | relative viability ([2]; first compound 0.8 µM) | relative viability ([2]; first compound 2.53 µM) | relative viability ([2]; first compound 8 µM) | relative viability ([3]; first compound 0.08 µM) | relative viability ([3]; first compound 0.253 µM) | relative viability ([3]; first compound 0.8 µM) | relative viability ([3]; first compound 2.53 µM) | relative viability ([3]; first compound 8 µM) | relative viability ([4]; first compound 0.08 µM) | relative viability ([4]; first compound 0.253 µM) | relative viability ([4]; first compound 0.8 µM) | relative viability ([4]; first compound 2.53 µM) | relative viability ([4]; first compound 8 µM)
NCI-H2228 | 0.218 | 0.277 | 0.23 | 0.217 | 0.265 | 0.636 | 0.459 | 0.628 | 0.695 | 0.2 | 0.63 | 0.36 | 0.531 | 0.492 | 0.403 | 0.595 | 0.717 | 0.9 | 0.69 | 0.37
NCI-H1944 | 0.261 | 0.285 | 0.26 | 0.269 | 0.232 | 0.441 | 0.354 | 0.383 | 0.463 | 0.328 | 0.99 | 0.955 | 0.998 | 0.928 | 1.02 | 0.63 | 0.537 | 0.605 | 0.483 | 0.521
NCI-H441 | 0.576 | 0.63 | 0.567 | 0.524 | 0.584 | 0.718 | 0.641 | 0.644 | 0.72 | 0.583 | 0.682 | 0.585 | 0.847 | 0.724 | 0.555 | 0.648 | 0.571 | 0.907 | 0.689 | 0.747
NCI-H1437 | 0.395 | 0.398 | 0.396 | 0.38 | 0.392 | 1.12 | 0.831 | 0.838 | 0.851 | 0.756 | 0.924 | 1.08 | 0.872 | 0.795 | 0.778 | 1.14 | 1.04 | 1.1 | 0.859 | 0.627
EPLC-272H | 0.254 | 0.273 | 0.34 | 0.348 | 0.148 | 0.286 | 0.268 | 0.296 | 0.333 | 0.21 | 0.925 | 0.945 | 1.2 | 0.729 | 0.863 | 0.586 | 0.447 | 0.463 | 0.249 | 0.337
LOU-NH91 | 0.622 | 0.688 | 0.644 | 0.656 | 0.675 | 0.731 | 0.71 | 0.766 | 0.778 | 0.747 | 0.626 | 0.723 | 0.788 | 0.707 | 0.704 | 0.864 | 0.886 | 0.952 | 0.897 | 0.917
ABC-1 | 0.15 | 0.153 | 0.182 | 0.184 | 0.158 | 0.53 | 0.485 | 0.485 | 0.475 | 0.381 | 1.12 | 1.02 | 1.22 | 0.992 | 1.26 | – | 1.18 | 1.4 | 0.825 | 0.907
RERF-LC-KJ | 0.495 | 0.532 | 0.413 | 0.506 | 0.449 | 0.548 | 0.523 | 0.535 | 0.614 | 0.49 | 0.863 | 0.868 | 0.864 | 0.827 | 0.687 | 0.73 | 0.859 | 0.841 | 0.867 | 0.66
